Measured values as given in patent US20050245399A1, “Pyrazole derivatives as herbicidal compositions containing them” (ISHIHARA SANGYO KAISHA, LTD., priority 2004, published 2005).

How the values were obtained:
Format in all cases: in vivo
[1] = tested on: japanese ribbon wapato (Sagittaria pygmaea: SA GPY); assay: Test Example 3 water application herbicidal activity (paddy), SAGPY; conditions: 63 g a.i./ha, water application under submerged condition, tubers planted, visually observed 14th day after application; 0 = untreated control, 100 = complete kill
Summary of the method: (§1)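 Flooded paddy-soil pots in greenhouse; ECHOR and SCPJO sown, SAGPY tubers planted a day later, compound applied into 3–4 cm water at weeds' 0.5-leaf stage. Rice transplanted at 2-leaf stage, treated day 4 after transplanting. Visual growth control 0–100% at 14 days (weeds) and 21 days (rice) after application.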

[2] = tested on: barnyardgrass (Echinochiloa oryzicola: ECHOR); assay: Test Example 3 water application herbicidal activity (paddy), ECHOR; conditions: 63 g a.i./ha, water application under submerged condition at 0.5 leaf stage, visually observed 14th day after application; 0 = untreated control, 100 = complete kill
Summary of the method: as §1

[3] = tested on: prickly sida (Sida spinosa L.), SIDSP; assay: Test Example 2 post-emergence (foliage treatment) herbicidal activity, SIDSP; conditions: 63 g a.i./ha
Summary of the method: (§2)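 Foliar spray of formulated compound (500 L/ha dilution water, 0.1% v/v spreader) onto young potted plants at defined leaf stages. Scored 0-100% by visual inspection 20-23 d post-spray.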

[4] = tested on: redroot pigweed (Amaranthus retroflexus L.), AMARE; assay: Test Example 2 post-emergence (foliage treatment) herbicidal activity, AMARE; conditions: 63 g a.i./ha
Summary of the method: (§3)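 Plants grown in upland soil pots were sprayed on foliage at set leaf stages (ECHCG 1.1-2.1, DIGSA 1.0-2.0, AMARE 0.1-1.5, ORYSA 1.0-2). Formulated compound was applied at predetermined active-ingredient amounts in 500 L/ha water with 0.1% (v/v) spreader. Growth control (0–100%) was visually scored 20–23 days later.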

[5] = tested on: barnyardgrass (Echinochloa crus-galli L.), ECHCG; assay: Test Example 2 post-emergence (foliage treatment) herbicidal activity, ECHCG; conditions: 63 g a.i./ha
Summary of the method: as §3

[6] = tested on: prickly sida (Sida spinosa L.): SEDSP; assay: Test Example 1 pre-emergence herbicidal activity, SIDSP; conditions: Rate 63 g a.i./ha, visually observed 20th to 23rd day after application
Summary of the method: (§4)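 Pots of upland soil were sown, and one day later WP or EC formulations at set active-ingredient rates were sprayed pre-emergence in 500 L/ha water. Growth control scored visually 20–23 days after application, 0 (as untreated) to 100 (complete kill).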

[7] = tested on: soybean (Glycine max Merr.): GLXMA; assay: Test Example 1 pre-emergence herbicidal activity, GLXMA; conditions: Rate 63 g a.i./ha, visually observed 20th to 23rd day after application
Summary of the method: as §4

[8] = tested on: rice (Oryza sativa L.: ORYSA); assay: Test Example 3 water application herbicidal activity (paddy), transplanted rice ORYSA; conditions: 63 g a.i./ha, water application 4th day after transplantation of 2 leaf stage rice, visually observed 21st day after application; 0 = untreated control, 100 = complete kill
Summary of the method: as §1

[9] = tested on: corn (Zea mays L.), ZEAMX; assay: Test Example 2 post-emergence (foliage treatment) herbicidal activity, ZEAMX; conditions: 63 g a.i./ha
Summary of the method: as §2

[10] = tested on: green foxtail (Setaria viridis L.): SETVI; assay: Test Example 1 pre-emergence herbicidal activity, SETVI; conditions: Rate 63 g a.i./ha, visually observed 20th to 23rd day after application
Summary of the method: as §4

[11] = tested on: velvetleaf (Abutilon theophrasti), ABUTH; assay: Test Example 2 post-emergence (foliage treatment) herbicidal activity, ABUTH; conditions: 63 g a.i./ha
Summary of the method: as §2

[12] = tested on: corn (Zea mays L.): ZEAMX; assay: Test Example 1 pre-emergence herbicidal activity, ZEAMX; conditions: Rate 63 g a.i./ha, visually observed 20th to 23rd day after application
Summary of the method: as §4

[13] = tested on: rice (Oryza sativa L.), ORYSA; assay: Test Example 2 post-emergence (foliage treatment) herbicidal activity, ORYSA; conditions: 63 g a.i./ha
Summary of the method: as §3

[14] = tested on: rice (Oryza sativa L.): ORYSA; assay: Test Example 1 pre-emergence herbicidal activity, ORYSA; conditions: Rate 63 g a.i./ha, visually observed 20th to 23rd day after application
Summary of the method: as §4

[15] = tested on: crabgrass (Digitaria sanguinalis L.): DIGSA; assay: Test Example 1 pre-emergence herbicidal activity, DIGSA; conditions: Rate 63 g a.i./ha, visually observed 20th to 23rd day after application
Summary of the method: as §4

[16] = tested on: wheat (Triticum aestivum L.): TRZAX; assay: Test Example 1 pre-emergence herbicidal activity, TRZAX; conditions: Rate 63 g a.i./ha, visually observed 20th to 23rd day after application
Summary of the method: as §4

[17] = tested on: green foxtail (Setaria viridis L.), SETVI; assay: Test Example 2 post-emergence (foliage treatment) herbicidal activity, SETVI; conditions: 63 g a.i./ha
Summary of the method: as §2

[18] = tested on: crabgrass (Digitaria sanguinalis L.), DIGSA; assay: Test Example 2 post-emergence (foliage treatment) herbicidal activity, DIGSA; conditions: 63 g a.i./ha
Summary of the method: as §3

[19] = tested on: japanese bulrush (Scirpus juncoides: SCPJO); assay: Test Example 3 water application herbicidal activity (paddy), SCPJO; conditions: 63 g a.i./ha, water application under submerged condition at 0.5 leaf stage, visually observed 14th day after application; 0 = untreated control, 100 = complete kill
Summary of the method: as §1

[20] = tested on: redroot pigweed (Amaranthus retroflexus L.): AMARE; assay: Test Example 1 pre-emergence herbicidal activity, AMARE; conditions: Rate 63 g a.i./ha, visually observed 20th to 23rd day after application
Summary of the method: as §4

[21] = tested on: soybean (Glycine max Merr.), GLXMA; assay: Test Example 2 post-emergence (foliage treatment) herbicidal activity, GLXMA; conditions: 63 g a.i./ha
Summary of the method: as §2

[22] = tested on: velvetleaf (Abutilon theophrasti): ABUTH; assay: Test Example 1 pre-emergence herbicidal activity, ABUTH; conditions: Rate 63 g a.i./ha, visually observed 20th to 23rd day after application
Summary of the method: as §4

[23] = tested on: wheat (Triticum aestivum L.), TRZAX; assay: Test Example 2 post-emergence (foliage treatment) herbicidal activity, TRZAX; conditions: 63 g a.i./ha
Summary of the method: as §2

[24] = tested on: barnyardgrass (Echinochloa crus-galli L.): ECHCG; assay: Test Example 1 pre-emergence herbicidal activity, ECHCG; conditions: Rate 63 g a.i./ha, visually observed 20th to 23rd day after application
Summary of the method: as §4

COc1ccc(COC(=O)Nc2c(OC)c(Cl)cc(F)c2-c2nn(C)c(OC(F)F)c2Cl)cc1 [Compound 1-56]
growth controlling degrees (%) SAGPY [1]: 80%
growth controlling degrees (%) ECHOR [2]: 100%
growth controlling degree, SIDSP [3]: 100%
growth controlling degree, AMARE [4]: 100%
growth controlling degree, ECHCO [5]: 90%
Pre-emergence Herbicidal Activity SIDSP (growth controlling degree) [6]: 70%
Pre-emergence Herbicidal Activity GLXMA (growth controlling degree) [7]: 0%
growth controlling degrees (%) ORYSA [8]: 35%
growth controlling degree, ZEAMX [9]: 80%
Pre-emergence Herbicidal Activity SETVI (growth controlling degree) [10]: 80%
growth controlling degree, ABUTH [11]: 100%
Pre-emergence Herbicidal Activity ZEAMX (growth controlling degree) [12]: 10%
growth controlling degree, ORYSA [13]: 90%
Pre-emergence Herbicidal Activity ORYSA (growth controlling degree) [14]: 20%
Pre-emergence Herbicidal Activity DIGSP (growth controlling degree) [15]: 70%
Pre-emergence Herbicidal Activity TRZAX (growth controlling degree) [16]: 0%
growth controlling degree, SETVI [17]: 100%
growth controlling degree, DIGSP [18]: 98%
growth controlling degrees (%) SCPJO [19]: 95%
Pre-emergence Herbicidal Activity AMARE (growth controlling degree) [20]: 100%
growth controlling degree, GLXMA [21]: 100%
Pre-emergence Herbicidal Activity ABUTH (growth controlling degree) [22]: 60%
growth controlling degree, TRZAX [23]: 50%
Pre-emergence Herbicidal Activity ECHCG (growth controlling degree) [24]: 50%

C#CCNc1c(OC(F)F)c(Cl)cc(F)c1-c1nn(C)c(OC(F)F)c1Cl [Compound 1-87]
growth controlling degrees (%) SAGPY [1]: 100%
growth controlling degrees (%) ECHOR [2]: 100%
growth controlling degree, SIDSP [3]: 100%
growth controlling degree, AMARE [4]: 100%
growth controlling degree, ECHCO [5]: 100%
Pre-emergence Herbicidal Activity SIDSP (growth controlling degree) [6]: 98%
Pre-emergence Herbicidal Activity GLXMA (growth controlling degree) [7]: 40%
growth controlling degrees (%) ORYSA [8]: 70%
growth controlling degree, ZEAMX [9]: 100%
Pre-emergence Herbicidal Activity SETVI (growth controlling degree) [10]: 100%
growth controlling degree, ABUTH [11]: 100%
Pre-emergence Herbicidal Activity ZEAMX (growth controlling degree) [12]: 0%
growth controlling degree, ORYSA [13]: 70%
Pre-emergence Herbicidal Activity ORYSA (growth controlling degree) [14]: 60%
Pre-emergence Herbicidal Activity DIGSP (growth controlling degree) [15]: 100%
Pre-emergence Herbicidal Activity TRZAX (growth controlling degree) [16]: 10%
growth controlling degree, SETVI [17]: 100%
growth controlling degree, DIGSP [18]: 100%
growth controlling degrees (%) SCPJO [19]: 100%
Pre-emergence Herbicidal Activity AMARE (growth controlling degree) [20]: 100%
growth controlling degree, GLXMA [21]: 95%
Pre-emergence Herbicidal Activity ABUTH (growth controlling degree) [22]: 80%
growth controlling degree, TRZAX [23]: 50%
Pre-emergence Herbicidal Activity ECHCG (growth controlling degree) [24]: 100%

COc1c(Cl)cc(F)c(-c2nn(C)c(OC(F)F)c2Cl)c1N(C=O)C(C)C [Compound 1-8]
growth controlling degrees (%) SAGPY [1]: 20%
growth controlling degrees (%) ECHOR [2]: 80%
growth controlling degree, SIDSP [3]: 100%
growth controlling degree, AMARE [4]: 100%
growth controlling degree, ECHCO [5]: 70%
Pre-emergence Herbicidal Activity SIDSP (growth controlling degree) [6]: 100%
Pre-emergence Herbicidal Activity GLXMA (growth controlling degree) [7]: 70%
growth controlling degrees (%) ORYSA [8]: 30%
growth controlling degree, ZEAMX [9]: 40%
Pre-emergence Herbicidal Activity SETVI (growth controlling degree) [10]: 100%
growth controlling degree, ABUTH [11]: 100%
Pre-emergence Herbicidal Activity ZEAMX (growth controlling degree) [12]: 40%
growth controlling degree, ORYSA [13]: 60%
Pre-emergence Herbicidal Activity ORYSA (growth controlling degree) [14]: 60%
Pre-emergence Herbicidal Activity DIGSP (growth controlling degree) [15]: 60%
Pre-emergence Herbicidal Activity TRZAX (growth controlling degree) [16]: 50%
growth controlling degree, SETVI [17]: 100%
growth controlling degree, DIGSP [18]: 60%
growth controlling degrees (%) SCPJO [19]: 60%
Pre-emergence Herbicidal Activity AMARE (growth controlling degree) [20]: 100%
growth controlling degree, GLXMA [21]: 70%
Pre-emergence Herbicidal Activity ABUTH (growth controlling degree) [22]: 100%
growth controlling degree, TRZAX [23]: 50%
Pre-emergence Herbicidal Activity ECHCG (growth controlling degree) [24]: 70%
